From the supplement of paper PMC10307832

Key:
Test in all cases: relative viability (nuclei count vs DMSO), 5 days (fraction); higher = more cells survive
Bemcentinib + Alpelisib = compound: Nc1nc(Nc2ccc3c(c2)CC[C@@H](N2CCCC2)CC3)nn1-c1cc2c(nn1)-c1ccccc1CCC2 [Bemcentinib] + Cc1nc(NC(=O)N2CCC[C@H]2C(N)=O)sc1-c1ccnc(C(C)(C)C(F)(F)F)c1 [Alpelisib] (partner 2 µM)
Method in brief: (§1)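 For relative viability, nuclei counts in treated wells were divided by those in vehicle wells. Lung cancer cell lines had been pin-tool dosed in 1536-well plates the day after seeding and cultured for 5 days, then fixed and stained in one step (final 0.05% Triton X-100, 1% formaldehyde, 1 ug/ml Hoechst) and imaged at 4×. Doses were one drug alone or a fixed anchor-drug dose plus five library-drug doses (not always all listed) in √10 steps, and values are duplicate-plate medians.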

Bemcentinib + Crizotinib = compound: Nc1nc(Nc2ccc3c(c2)CC[C@@H](N2CCCC2)CC3)nn1-c1cc2c(nn1)-c1ccccc1CCC2 [Bemcentinib] + C[C@@H](Oc1cc(-c2cnn(C3CCNCC3)c2)cnc1N)c1c(Cl)ccc(F)c1Cl [Crizotinib] (partner 1 µM)
Method in brief: as §1

Bemcentinib + OSI-027 = compound: Nc1nc(Nc2ccc3c(c2)CC[C@@H](N2CCCC2)CC3)nn1-c1cc2c(nn1)-c1ccccc1CCC2 [Bemcentinib] + COc1cccc2cc(-c3nc([C@H]4CC[C@H](C(=O)O)CC4)n4ncnc(N)c34)[nH]c12 [OSI-027] (partner 0.5 µM)
Method in brief: as §1

Bemcentinib + Foretinib = compound: Nc1nc(Nc2ccc3c(c2)CC[C@@H](N2CCCC2)CC3)nn1-c1cc2c(nn1)-c1ccccc1CCC2 [Bemcentinib] + COc1cc2c(Oc3ccc(NC(=O)C4(C(=O)Nc5ccc(F)cc5)CC4)cc3F)ccnc2cc1OCCCN1CCOCC1 [Foretinib] (partner 0.25 µM)
Method in brief: as §1

Cell Line | relative viability (Bemcentinib + Alpelisib; first compound 0.04 µM) | relative viability (Bemcentinib + Alpelisib; first compound 0.1265 µM) | relative viability (Bemcentinib + Alpelisib; first compound 0.4 µM) | relative viability (Bemcentinib + Alpelisib; first compound 1.265 µM) | relative viability (Bemcentinib + Alpelisib; first compound 4 µM) | relative viability (Bemcentinib + Crizotinib; first compound 0.04 µM) | relative viability (Bemcentinib + Crizotinib; first compound 0.1265 µM) | relative viability (Bemcentinib + Crizotinib; first compound 0.4 µM) | relative viability (Bemcentinib + Crizotinib; first compound 1.265 µM) | relative viability (Bemcentinib + Crizotinib; first compound 4 µM) | relative viability (Bemcentinib + OSI-027; first compound 0.04 µM) | relative viability (Bemcentinib + OSI-027; first compound 0.1265 µM) | relative viability (Bemcentinib + OSI-027; first compound 0.4 µM) | relative viability (Bemcentinib + OSI-027; first compound 1.265 µM) | relative viability (Bemcentinib + OSI-027; first compound 4 µM) | relative viability (Bemcentinib + Foretinib; first compound 0.04 µM) | relative viability (Bemcentinib + Foretinib; first compound 0.1265 µM) | relative viability (Bemcentinib + Foretinib; first compound 0.4 µM) | relative viability (Bemcentinib + Foretinib; first compound 1.265 µM) | relative viability (Bemcentinib + Foretinib; first compound 4 µM)
201T | 1.01 | 0.987 | 1.03 | 1.08 | 1.04 | 1.05 | 1.03 | 0.983 | 1.05 | 1.07 | 0.599 | 1.02 | 0.778 | 0.709 | 0.801 | 1.07 | 1.33 | 1.24 | 1.12 | 1.11
A549 | 0.834 | 0.892 | 0.754 | 0.988 | 0.875 | 0.786 | 0.795 | 0.966 | 0.824 | 0.742 |  |  |  |  |  | 0.95 | 1.03 | 0.977 | 1.08 | 1.11
A-427 |  | 1.05 | 1.18 | 1.04 | 1.15 |  | 0.95 | 0.843 | 0.931 | 0.863 | 0.455 | 0.511 | 0.492 | 0.427 | 0.472 | 1.09 | 1.1 | 1.24 | 1.06 | 1.19
ABC-1 | 1.22 | 1.07 | 1.08 | 0.997 | 1.07 | 1.06 | 1.26 | 0.934 | 0.95 | 1.02 | 0.435 | 0.402 | 0.469 | 0.683 | 0.507 | 1.05 | 1.18 | 1 | 0.899 | 0.897
BEN | 0.984 | 1.09 | 1.11 | 1.12 | 1.02 | 0.936 | 1.16 | 0.935 | 0.845 | 0.775 | 0.292 | 0.288 | 0.296 | 0.345 | 0.322 | 0.562 | 0.731 | 0.711 | 0.612 | 0.635
CAL-12T | 1.19 | 1.51 | 1.37 | 1.31 | 1.16 | 0.394 | 0.767 | 0.679 | 0.62 | 0.525 | 0.6 | 0.912 | 0.77 | 0.769 | 0.755 | 1.17 | 1.1 | 0.97 | 1.11 | 1.07
COR-L23 | 0.874 | 0.778 | 0.965 | 0.9 | 0.904 | 0.65 | 0.787 | 0.729 | 0.784 | 0.56 | 0.665 | 0.969 | 0.905 | 0.788 | 0.888 | 0.949 | 1.23 | 0.969 | 1.08 | 0.999
COR-L 105 | 1.05 | 0.949 | 1.03 | 0.931 | 0.895 | 0.638 | 0.843 | 0.969 | 0.641 | 0.621 | 0.521 | 0.642 | 0.571 | 0.713 | 0.726 | 1.43 | 1.27 | 1.01 | 0.856 | 0.993
Calu-6 | 0.928 | 1.04 | 1.01 | 1.04 | 1.07 | 0.76 | 0.958 | 1.09 | 0.858 | 0.676 |  |  |  |  |  | 0.93 | 0.938 | 0.947 | 0.917 | 0.905
ChaGo-K-1 |  |  |  |  |  | 1.12 | 1.33 | 1.15 | 1.18 | 1.12 | 0.515 | 0.794 | 0.626 | 0.614 | 0.531 | 0.93 | 1.04 | 0.899 | 0.951 | 0.906
EBC-1 | 0.843 | 0.863 | 0.825 | 0.849 | 0.76 | 0.185 | 0.214 | 0.179 | 0.236 | 0.193 |  |  |  |  |  | 0.0932 | 0.0983 | 0.108 | 0.0894 | 0.103
EKVX | 0.913 | 1.01 | 0.929 | 0.973 | 0.972 | 0.973 | 0.981 | 1.06 | 1.03 | 0.986 | 0.57 | 0.669 | 0.753 | 0.793 | 0.824 | 0.837 | 0.488 | 0.842 | 1.11 | 0.834
EMC-BAC-2 | 0.833 | 0.756 | 0.817 | 0.788 | 0.803 | 0.788 | 0.801 | 0.776 | 0.836 | 0.831 | 0.372 | 0.369 | 0.427 | 0.37 | 0.388 | 0.972 | 1.02 | 1.04 | 1.03 | 1.06
EPLC-272H |  | 0.991 | 0.951 | 0.977 | 1.07 |  | 0.96 | 1.05 | 0.86 | 1.01 | 0.342 | 0.266 | 0.318 | 0.244 | 0.361 | 0.639 | 0.899 | 0.712 | 0.839 | 0.988
